The source of these data is patent publication US8952199B2, “Methods of and formulations for reducing and inhibiting the growth of the concentration of microbes in water-based fluids and systems used with them” (Dow Global Technologies LLC, priority 2007, dated 2015).

Common to all, as to assay type: cell-based
The test system of assay [1] is Aerobic bacteria (ATCC bacterial strains, oil/gas field aerobic bacteria, standard marine bacterium). The experiment in a line: Concentration for at least 3 log reduction in 1 hr, aerobic bacteria (one value for ATCC strains, oil/gas field aerobic bacteria and standard marine bacterium). The conditions noted are these: active, biocide alone. On the procedure: (§1) A sterile salt solution (1.2490 g NaCl, 2.9290 g NaHCO3, 0.1910 g Na2CO3, 0.0060 g Na2SO4, 0.033 g CaCl2, and 0.0590 g MgCl2.6H2O in 1 L water) is contaminated with mixed oil/gas field aerobic bacteria at final bacterial concentrations of ˜10^7 CFU/mL. At day zero, either glutaraldehyde (UCARCIDE™ 250, 50% glutaraldehyde in water, The Dow Chemical Company) or THPS (AQUCAR™ THPS 75, 75% THPS in water, The Dow Chemical Company) is added and the solution mixed well to provide a desired final concentration. The solution is then incubated at 37° C. Bacterial populations are monitored over time using a serial dilution method. In experiments running over seven days, samples are reinoculated at day seven.
The testing protocols described in Examples 1 and 2, respectively, are used for oil/gas field aerobic bacteria and anaerobic sulfate reducing bacteria. For the standard bacterial strains Enterobacter aerogenes ATCC 13048, Salmonella choleraesius ATCC 10708, Pseudomonas aeruginosa ATCC 10145, Staphylococcus aureus ATCC 6538, Klebsiella pneumoniae ATCC 8308, Bacillus subtillus ATCC 8473, Escherichia coli ATCC 11229, and Pseudomonas aeruginosa ATCC 39451, separate experiments are performed as described in Example 1, but using a sterile 0.85% NaCl solution instead of the salt solution. For standard marine bacteria Pseudomonas sp. […]

Assay [2] concerns mixed oil/gas field anaerobic sulfate reducing bacteria. The experiment in a line: Biocidal efficacy against mixed oil/gas field anaerobic sulfate reducing bacteria in deaerated salt solution, serial dilution count. The conditions noted are these: for Concentration required to achieve at lease 3 log bacterial reduction in 1 hr / Concentration required to achieve at least 3 log reduction of anaerobic sulfate reducing bacteria: active; for Concentration required to achieve at lease 3 log bacterial reduction in 1 hr: biocide alone, anaerobic oil/gas field SRB bacteria; for Concentration required to achieve at least 3 log reduction of anaerobic sulfate reducing bacteria: 37° C. On the procedure: A sterile salt solution as described in Example 1 is deaerated, then contaminated with mixed oil/gas field anaerobic sulfate reducing bacteria at final bacterial concentrations of ˜10^7 CFU/mL. At time=zero, either glutaraldehyde (UCARCIDE™ 250) or THPS (AQUCAR™ THPS 75) is added and the solution mixed well to provide a desired final concentration. The solutions are incubated at 37° C. in an anaerobic environment (Bactron III anaerobic chamber). Bacterial populations are monitored over time using a serial dilution method. In experiments running over seven days, samples are reinoculated at day seven.
The testing protocols described in Examples 1 and 2, respectively, are used for oil/gas field aerobic bacteria and anaerobic sulfate reducing bacteria. For the standard bacterial strains Enterobacter aerogenes ATCC 13048, Salmonella choleraesius ATCC 10708, Pseudomonas aeruginosa ATCC 10145, Staphylococcus aureus ATCC 6538, Klebsiella pneumoniae ATCC 8308, Bacillus subtillus ATCC 8473, Escherichia coli ATCC 11229, and Pseudomonas aeruginosa ATCC 39451, separate experiments are performed as described in Example 1, but using a sterile 0.85% NaCl solution instead of the salt solution. For standard marine bacteria Pseudomonas sp. ATCC 39451, experiments are performed as described in Examples 1 and 2, but at pH 8.0 using artificial sea water (24.6 g NaCl, 0.67 g KCl, 1.36 g CaCl2.2H2O, 6.29 g MgSO4.7H2O, 4.66 g MgCl2.6H2O and 0.18 g NaHCO3 in 1 L water). All data is collected at time=1 hour.

Assay [3] relates to mixed oil/gas field aerobic bacteria. Briefly: Biocidal efficacy against mixed oil/gas field aerobic bacteria in sterile salt solution, serial dilution count. The conditions noted are these: for Concentration required to achieve at least 3 log reduction of aerobic bacteria: active, 37° C. On the procedure: as §1, with “seven. […]” for “seven.”
The mark [4] stands for this setting: time interval 8 days, reinoculated at day seven.
Where [5] appears, read: time interval 9 days, reinoculated at day seven.

For `O=CCCCC=O` [glutaraldehyde], the “Concentration required to achieve at lease 3 log bacterial reduction in 1 hr” value is given as 44.49 ppm in assay [1] and 29.67 ppm in assay [2]. The “Concentration required to achieve at least 3 log reduction of anaerobic sulfate reducing bacteria” value came to 12.5 ppm in assay [2] (time interval 2 hrs); 12.5 ppm in assay [2] (time interval 4 hrs); 12.5 ppm in assay [2] (time interval 1 day); 12.5 ppm in assay [2] (time interval 2 days); 25.0 ppm in assay [2] (time interval 3 days); 25.0 ppm in assay [2] (time interval 4 days). Further, the “Concentration required to achieve at least 3 log reduction of anaerobic sulfate reducing bacteria” value in assay [2] (time interval 7 days) is reported as 25.0 ppm; in assay [2] (setting [4]), 25.0 ppm; in assay [2] (setting [5]), 50.0 ppm. In addition, in assay [2] (glutaraldehyde versus hydroxymethyl-substituted compounds), the “Speed of action on anaerobic sulfate reducing bacteria, compared in words” value is “more rapid results”. The “Concentration required to achieve at least 3 log reduction of aerobic bacteria” value in assay [3] (time interval 2 hrs) is 25.0 ppm; in assay [3] (time interval 4 hrs) it was 25.0 ppm; in assay [3] (time interval 1 day), 6.3 ppm; in assay [3] (time interval 3 days), 6.3 ppm; in assay [3] (time interval 4 days), 6.3 ppm; in assay [3] (time interval 7 days), 12.5 ppm. In addition, the “Concentration required to achieve at least 3 log reduction of aerobic bacteria” value in assay [3] (setting [4]) and in assay [3] (setting [5]) was 25.0 ppm each time. The “Efficacy against aerobic bacteria, compared in words” value in assay [3] (glutaraldehyde versus hydroxymethyl-substituted phosphorus compounds) was “higher efficacy against aerobic bacteria”.

With “tetrakis(hydroxymethyl)phosphonium sulfate [THPS]”, the “Concentration required to achieve at lease 3 log bacterial reduction in 1 hr” value in assay [1] and in assay [2] was 44.49 ppm throughout. Moreover, the “Concentration required to achieve at least 3 log reduction of anaerobic sulfate reducing bacteria” value is 50.0 ppm in assay [2] (time interval 2 hrs); 25.0 ppm in assay [2] (time interval 4 hrs); 25.0 ppm in assay [2] (time interval 1 day); 12.5 ppm in assay [2] (time interval 2 days); 6.3 ppm in assay [2] (time interval 3 days); 6.3 ppm in assay [2] (time interval 4 days). The “Concentration required to achieve at least 3 log reduction of anaerobic sulfate reducing bacteria” value in assay [2] (time interval 7 days) is 6.3 ppm; in assay [2] (setting [4]), 12.5 ppm; in assay [2] (setting [5]), 25.0 ppm. Moreover, the “Concentration required to achieve at least 3 log reduction of aerobic bacteria” value in assay [3] (time interval 2 hrs) is on record as 25.0 ppm; in assay [3] (time interval 4 hrs) it was 25.0 ppm; in assay [3] (time interval 1 day) it was 12.5 ppm; in assay [3] (time interval 3 days), 12.5 ppm; in assay [3] (time interval 4 days), 25.0 ppm; in assay [3] (time interval 7 days), 25.0 ppm. Also, the “Concentration required to achieve at least 3 log reduction of aerobic bacteria” value in assay [3] (setting [4]) and in assay [3] (setting [5]) was 100.0 ppm in each case.
